In US7902346B2, “Fusion protein comprising FK506 binding protein and DNA encoding the same” (Industry Academic Cooperation Foundation, Hallym University, priority 2006, dated 2011):

How the values were obtained:
epidermis of mouse = assay: Penetration of fusion protein into epidermis of mouse; settings: in vivo
cyclooxygenase-2 = assay: Immunity inhibition effect: lipopolysaccharide-induced cyclooxygenase-2 expression in skin cells, Western blot; type: cell-based, human
Experimental: Thereafter, one of 3 kinds of the fusion protein of FK506BP was added to the each group of cells, respectively. After lipopolysaccharides were added, the expression of cyclooxygenase-2 was monitored via the Western Blot analysis.

[1] = test system: human skin primary fibroblast cells; assay: Intracellular transduction of fusion protein into skin cells, Western blot analysis; type: cell-based
Experimental: The human skin primary fibroblast cells obtained from Catholic University medical school (Korea) were cultured in Dulbecco's modified Eagle's medium (DMEM) containing 20 mM HEPES/NaOH (pH 7.4), 5 mM NaHCO3, 10% fetal bovine serum (FBS) and antibiotics ([…], 100 U/ml penicillin) at 37° C. under a humidified condition of 95% air and 5% CO2. For the transduction of Pep-1-FK506 binding proteins, skin cells were grown about […] to confluence on a 6-well plate. The culture medium was then replaced with fresh solution containing 10% fetal bovine serum. After skin cells were treated with one of 3 kinds of fusion protein of the FK506 binding protein (Pep-1 peptide is bound C-, N- or C-/N-terminus of FK506 binding protein respectively) for 1 hr, the cells were then treated with trypsin-EDTA and washed with phosphate-buffered saline (PBS). Thereafter the cells were harvested for the preparation of cell extracts to perform Western blot analysis.
Western blot analysis was performed to identify intracellular transduction of the fusion protein of FK506 binding protein. The protein was purified in nature form. […]
The transduced Pep-1-FK506BP proteins on the polyacrylamide gel were electrophoretically transferred to a nitrocellulose membrane. […]

Pep-1-FK506BP: Fusion protein of human FK506 binding protein with Pep-1 peptide (SEQ ID NO: 3) and six histidines at the amino terminus; Seq. No. 7
penetration into epidermis of mouse (epidermis of mouse): effectively penetrated
apoptosis induced by lipopolysaccharides (cyclooxygenase-2): inhibited apoptosis
effect on lipopolysaccharide-induced cyclooxygenase-2 expression, treatment together with FK506 (cyclooxygenase-2; fusion protein together with FK506, compared with fusion protein alone): more effective
expression of cyclooxygenase-2 induced by lipopolysaccharides (cyclooxygenase-2; western blot (FIG. 5), 10 μM fusion protein): inhibited
transduction into skin cells (western blot) ([1]; native fusion protein, 0.5-5 μM for 60 min and 5 μM for 10-60 min (FIG. 3)): transduced into skin cells in a time- and concentration-dependent manner
time in which the protein was transduced ([1]; skin cells treated with 5 μM for 10-60 min (FIG. 3B)): ≤ 10 min
